“And” between values parts separate entries of the source, which are not always exact repeats. Equal values may be shown once. Read-outs that look alike come from different tables or passages of the source.
Legend:
[1] = test system: 60 human cancer cell lines; assay: NCI-60 anticancer screen, full panel; format: cell-based; conditions: for Mean Growth %: mean over the panel
SR = assay: NCI-60 screen, Leukemia SR; format: cell-based, human
786-0 = assay: NCI-60 screen, Renal Cancer 786-0; format: cell-based; conditions: for Growth of Cells (%): 786-0, 10^−5 M one dose
MALME-3M = assay: NCI-60 screen, Melanoma MALME-3M; format: cell-based, human; conditions: for Growth of Cells (%): 10^−5 M one dose
U251 = assay: NCI-60 screen, CNS Cancer U251; format: cell-based, human
KM12 = assay: NCI-60 screen, Colon Cancer KM12; format: cell-based, human; conditions: for Growth of Cells (%): KM12, 10^−5 M one dose
MDA-MB-435 = assay: NCI-60 screen, Melanoma MDA-MB-435; format: cell-based, human; conditions: for Growth of Cells (%): MDA-MB-435, 10^−5 M one dose
Procedure: The search for the cytotoxic activity of new derivatives usually starts with in vitro cell-based screening. Four compounds 2b (NSC D-745983/1), 3b (NSC D-766111/1), 4b (NSC D-785591/1) and 4c (NSC D-771706/1), selected by the National Cancer Institute were tested in the anticancer screen for a panel of approximately 60 human disease-oriented tumor cell lines, organized into subpanels derived from nine human cancer types—leukemia, melanoma, and cancers of the lung, colon, brain, breast, ovary, prostate, and kidney. They were initially tested at only one concentration of 10 µM (10^−5 M) for each cell line, which were inoculated and preincubated on a microtiter plate for […]. The results of the one-dose anticancer assay for the tested new compounds are reported as the percentage of the treated cell growth in comparison with untreated no-drug control. This allows for detection of the growth inhibition—values 0–100 and cytotoxicity; negative numbers mean cell death.
Antitumor activity in five dose testing (10^−4−10^−8 M) is expressed by three different dose–response parameters for each of the 60 human tumor cell lines. The GI50 value (molar concentration causing a half-growth inhibition), TGI (molar concentration required for total growth inhibition), which signifies the cytostatic effect, and LC50 (molar concentration of the compound required for 50% cell death). LC50 signifies the cytotoxic effect. […] Nevertheless, the selectivity for GI50 can be seen for several cell lines within subpanel leukemia (SR, log GI50 −6.36) and non-small cell lung cancer (NCI-H522, log GI50 −6.69).
The antitumor screening (NCI-60) was performed at the National Cancer Institute, Bethesda, USA. A total panel of approximately 60 human tumor cell lines derived from nine different cancer types (leukemia, non-small cell lung, colon, brain, melanoma, ovarian, renal, prostate and breast) formed the basis of this in vitro test. The origins and processing of the cell lines used in the study were described previously. First, the compounds were evaluated in a primary anticancer assay at 10^−5 M. Results for each tested compound are reported as the percent of growth of the treated cells. […] The human tumor cell lines of the cancer screening panel were grown in an RMPI 1640 medium containing 5% fetal bovine serum and 2 mM of L-glutamine. Each cell line was inoculated and preincubated at 37 °C, 5% CO2, 95% air and 100% relative humidity for 24 h, before the addition of the test compound into 96-well microtiter plates in 100 µL at plating densities ranging from 5000 to 40,000 cells/well. The density of inoculum depends on the type of tumor cell and its growth characteristics. The screened compounds were solubilized in dimethyl sulfoxide at 400-fold the desired final concentration and stored frozen. At the time of the test agents’ addition, an aliquot of frozen concentrate was thawed and diluted to twice the desired final concentration with complete medium containing 50 µg/mL gentamicin. Next, the test compounds were evaluated at the four additional 10-fold dilutions to reach the final concentrations plus control. Aliquots of 100 µL of the different dilutions (100, 10, 1, […] µM/mL) of the tested compounds were added to microtiter wells, and the culture was incubated for 48 h under the same conditions. Cell were fixed in situ by the addition of 50 µL of cold 50% trichloroacetic acid and incubated for 60 min at 4 °C. The supernatant was discarded; plates were washed five times with water and air-dried. Sulforhodamine B at 0.4% in 1% acetic acid, 100 µL, was added to each well, then plates were incubated for 10 min at room temperature. Unbound dye was removed by washing five times with 1% acetic acid and air dried. The protein-bound stain was solubilized with a […] trizma base and the absorbance was read on an automated plate reader. A wavelength of 515 nm was used to read optical densities. […]

TK-10 = assay: NCI-60 screen, Renal Cancer TK-10; format: cell-based, human; conditions: for Growth of Cells (%): TK-10, 10^−5 M one dose
DU-145 = assay: NCI-60 screen, Prostate C. DU-145; format: cell-based; conditions: for Growth of Cells (%): DU-145, 10^−5 M one dose
MCF7 = assay: NCI-60 screen, Breast Cancer MCF7; format: cell-based, human; conditions: for Growth of Cells (%): MCF7, 10^−5 M one dose
BT-549 = assay: NCI-60 screen, Breast Cancer BT-549; format: cell-based, human; conditions: for Growth of Cells (%): BT-549, 10^−5 M one dose
SK-MEL-28 = assay: NCI-60 screen, Melanoma SK-MEL-28; format: cell-based; conditions: for Growth of Cells (%): SK-MEL-28, 10^−5 M one dose
SK-OV-3 = assay: NCI-60 screen, Ovarian Cancer SK-OV-3; format: cell-based, human; conditions: for Growth of Cells (%): SK-OV-3, 10^−5 M one dose
PC-3 = assay: NCI-60 screen, Prostate C. PC-3; format: cell-based; conditions: for Growth of Cells (%): PC-3, 10^−5 M one dose
SF-268 = assay: NCI-60 screen, CNS Cancer SF-268; format: cell-based, human; conditions: for Growth of Cells (%): SF-268, 10^−5 M one dose
UACC-62 = assay: NCI-60 screen, Melanoma UACC-62; format: cell-based, human; conditions: UACC-62, 10^−5 M one dose
[2] = over the panel, values > −4.00 excluded
[3] = Homo sapiens, five doses 10^−4–10^−8 M
[4] = Homo sapiens, U-251, U251, five doses 10^−4–10^−8 M

FC(F)(F)c1nc(Cl)c2sc(=S)n(-c3ccccc3)c2n1 [Compound 3b, 7-chloro-3-phenyl-5-(trifluoromethyl)[1, 3]thiazolo[4,5-d]pyrimidine-2(3H)-thione]
Mean Growth % ([1]; 10^−5 M one dose): 29.51% | GI50 ([1]; Homo sapiens, five doses 10^−4–10^−8 M, mean graph midpoint over all tested cell lines, read-out: log GI50 Mean MG_MID (converted)): 2.19 µM | CC50 ([1]; Homo sapiens, five doses 10^−4–10^−8 M, mean graph midpoint over all tested cell lines, read-out: log LC50 Mean MG_MID (converted)): 16.6 µM | CC50 ([1]; Homo sapiens, one number printed for the pair, read-out: log LC50 MG_MID/Δ (converted)): 16.6 µM | log TGI Mean MG_MID ([1]; five doses 10^−4–10^−8 M, mean graph midpoint over all tested cell lines): −5.30 log M and −5.3 log M | N2: number of cell lines giving positive log TGI (≤−4.01) ([1]; of N = 58 tested cell lines): 58 | log GI50 Range [1, 2]: −4.86 to −6.69 log M | log LC50 Range [1, 2]: −4.03 to −5.82 log M | log TGI Range [1, 2]: −4.31 to −6.33 log M | GI50 (SR; [3]): 0.437 µM | CC50 (SR; Homo sapiens, five doses 10^−4–10^−8 M, read-out: log LC50 (the source's name) (converted)): > 100 µM | log TGI (SR; five doses 10^−4–10^−8 M): −5.70 log M | Growth of Cells (%) (786-0): 90.12% | log TGI (786-0; 786-0, five doses 10^−4–10^−8 M): −5.42 log M | GI50 (786-0; Homo sapiens, 786-0, five doses 10^−4–10^−8 M): 1.95 µM | CC50 (786-0; Homo sapiens, 786-0, five doses 10^−4–10^−8 M, read-out: log LC50 (the source's name) (converted)): 7.41 µM | Growth of Cells (%) (MALME-3M): 40.72% | GI50 (MALME-3M; [3]): 2.29 µM | LC50 (concentration causing 50% cell kill) (MALME-3M; [3]): 8.13 µM | log TGI (MALME-3M; five doses 10^−4–10^−8 M): −5.37 log M | GI50 (U251; [4]): 1.74 µM | LC50 (lethal concentration 50%) (U251; [4]): 5.75 µM | log TGI (U251; U251, five doses 10^−4–10^−8 M): −5.50 log M | GI50 (KM12; Homo sapiens, KM12, five doses 10^−4–10^−8 M): 2.29 µM | CC50 (KM12; Homo sapiens, KM12, five doses 10^−4–10^−8 M, read-out: log LC50 (the source's name) (converted)): 14.5 µM | Growth of Cells (%) (KM12): 90.93% | log TGI (KM12; KM12, five doses 10^−4–10^−8 M): −5.30 log M | GI50 (MDA-MB-435; Homo sapiens, MDA-MB-435, five doses 10^−4–10^−8 M): 1.86 µM | CC50 (MDA-MB-435; Homo sapiens, MDA-MB-435, five doses 10^−4–10^−8 M, read-out: log LC50 (the source's name) (converted)): 7.41 µM | Growth of Cells (%) (MDA-MB-435): 6.26% | log TGI (MDA-MB-435; MDA-MB-435, five doses 10^−4–10^−8 M): −5.43 log M | GI50 (TK-10; Homo sapiens, TK-10, five doses 10^−4–10^−8 M): 2 µM | CC50 (TK-10; Homo sapiens, TK-10, five doses 10^−4–10^−8 M, read-out: log LC50 (the source's name) (converted)): 8.32 µM | Growth of Cells (%) (TK-10): 51.24% | log TGI (TK-10; TK-10, five doses 10^−4–10^−8 M): −5.39 log M | Growth of Cells (%) (DU-145): 9.04% | log TGI (DU-145; DU-145, five doses 10^−4–10^−8 M): −5.46 log M | GI50 (DU-145; Homo sapiens, DU-145, read-out: log GI50 (converted)): 1.86 µM | CC50 (DU-145; Homo sapiens, DU-145, five doses 10^−4–10^−8 M, read-out: log LC50 (the source's name) (converted)): 6.46 µM | GI50 (MCF7; Homo sapiens, MCF7, five doses 10^−4–10^−8 M): 2.24 µM | CC50 (MCF7; Homo sapiens, MCF7, five doses 10^−4–10^−8 M, read-out: log LC50 (the source's name) (converted)): 57.5 µM | Growth of Cells (%) (MCF7): 22.84% | log TGI (MCF7; MCF7, five doses 10^−4–10^−8 M): −5.25 log M | Growth of Cells (%) (BT-549): 73.90% | log TGI (BT-549; BT-549, five doses 10^−4–10^−8 M): −5.50 log M | GI50 (BT-549; Homo sapiens, BT-549, five doses 10^−4–10^−8 M): 1.51 µM | CC50 (BT-549; Homo sapiens, BT-549, five doses 10^−4–10^−8 M, read-out: log LC50 (the source's name) (converted)): 6.76 µM | GI50 (SK-MEL-28; Homo sapiens, SK-MEL-28, five doses 10^−4–10^−8 M): 1.95 µM | CC50 (SK-MEL-28; Homo sapiens, SK-MEL-28, five doses 10^−4–10^−8 M, read-out: log LC50 (the source's name) (converted)): 6.46 µM | Growth of Cells (%) (SK-MEL-28): −62.53% | log TGI (SK-MEL-28; SK-MEL-28, five doses 10^−4–10^−8 M): −5.45 log M | GI50 (SK-OV-3; Homo sapiens, SK-OV-3, five doses 10^−4–10^−8 M): 4.9 µM | CC50 (SK-OV-3; Homo sapiens, SK-OV-3, five doses 10^−4–10^−8 M, read-out: log LC50 (the source's name) (converted)): > 100 µM | Growth of Cells (%) (SK-OV-3): 101.94% | log TGI (SK-OV-3; SK-OV-3, five doses 10^−4–10^−8 M): −4.97 log M | GI50 (PC-3; Homo sapiens, PC-3, five doses 10^−4–10^−8 M): 1.82 µM | CC50 (PC-3; Homo sapiens, PC-3, five doses 10^−4–10^−8 M, read-out: log LC50 (the source's name) (converted)): 6.76 µM | Growth of Cells (%) (PC-3): 53.66% | log TGI (PC-3; PC-3, five doses 10^−4–10^−8 M): −5.45 log M | GI50 (SF-268; Homo sapiens, SF-268, five doses 10^−4–10^−8 M): 1.78 µM | CC50 (SF-268; Homo sapiens, SF-268, five doses 10^−4–10^−8 M, read-out: log LC50 (the source's name) (converted)): 6.61 µM | Growth of Cells (%) (SF-268): 84.73% | Growth of Cells (%) (UACC-62): 79.14%

O=c1[nH]c(C(F)(F)F)nc2c1sc(=S)n2-c1ccccc1 [Compound 2b, 3-phenyl-2-thioxo-5-(trifluoromethyl)-2,3-dihydro[1, 3]thiazolo[4,5-d]pyrimidin-7(6H)-one]
activity in the one-dose assay (in words) ([1]; 10^−5 M one dose): insufficient activity | Mean Growth % ([1]; 10^−5 M one dose): 103.88% | Growth of Cells (%) (SR; 10^−5 M one dose): 105.93% | Growth of Cells (%) (786-0): 104.97% | Growth of Cells (%) (MALME-3M): 121.70% | Growth of Cells (%) (U251; U251, 10^−5 M one dose): 101.63% | Growth of Cells (%) (KM12): 100.96% | Growth of Cells (%) (MDA-MB-435): 114.64% | Growth of Cells (%) (TK-10): 130.06% | Growth of Cells (%) (DU-145): 109.40% | Growth of Cells (%) (MCF7): 111.19% | Growth of Cells (%) (BT-549): 130.31% | Growth of Cells (%) (SK-MEL-28): 102.86% | Growth of Cells (%) (SK-OV-3): 108.53% | Growth of Cells (%) (PC-3): 100.88% | Growth of Cells (%) (SF-268): 101.77% | Growth of Cells (%) (UACC-62): 109.52%
